Columns and labels:
Format in all cases: in vivo
[1] = system: Yellow Fever Mosquito (YFM) (Aedes aegypti); test: Bioassay on Yellow Fever Mosquito (YFM) larvae, 96-well plate; settings: Table ABC; about 1 day-old larvae, master plate 4000 ppm in DMSO diluted, scored on mortality after 3 days
Method: Certain molecules disclosed in this document were tested against YFM using procedures described in the following paragraph. In the reporting of the results, the “GPA & YFM Rating Table” was used (See Table Section).
Master plates containing 400 μg of a molecule dissolved in 100 μL of dimethyl sulfoxide (DMSO) (equivalent to a 4000 ppm solution) are used. A master plate of assembled molecules contains 15 μL per well. To this plate, 135 μL of a 90:10 water:acetone mixture is added to each well. A robot (Biomek® NXP Laboratory Automation Workstation) is programmed to dispense 15 μL aspirations from the master plate into an empty 96-well shallow plate (“daughter” plate). There are 6 reps (“daughter” plates) created per master. The created daughter plates are then immediately infested with YFM larvae.
The day before plates are to be treated, mosquito eggs are placed in Millipore water containing liver powder to begin hatching (4 g. into 400 mL). After the daughter plates are created using the robot, they are infested with 220 μL of the liver powder/larval mosquito mixture (about 1 day-old larvae). After plates are infested with mosquito larvae, a non-evaporative lid is used to cover the plate to reduce drying. Plates are held at room temperature for 3 days prior to grading. After 3 days, each well is observed and scored based on mortality.

[2] = system: Cabbage Looper (CL) (Trichoplusia ni); test: Bioassay on Cabbage Looper (CL), 128-well diet tray assay; settings: 168 h, Table ABC, 50 μg/cm^2 on artificial diet, second instar larvae, five to seven days, 25° C., read-out: CL % Control (or Mortality) rating
Method: (§1) Certain molecules disclosed in this document were tested against BAW and CL using procedures described in the following examples. In the reporting of the results, the “BAW & CL Rating Table” was used (See Table Section).
Bioassays on CL were conducted using a 128-well diet tray assay. One to five second instar CL larvae were placed in each well (3 mL) of the diet tray that had been previously filled with 1 mL of artificial diet to which 50 μg/cm^2 of the test compound (dissolved in 50 μL of 90:10 acetone-water mixture) had been applied (to each of eight wells) and then allowed to dry. Trays were covered with a clear self-adhesive cover, and held at 25° C., 14:10 light-dark for five to seven days. Percent mortality was recorded for the larvae in each well; activity in the eight wells was then averaged. The results are indicated in the table entitled “Table ABC: Assay Results” and “Table ABCD: Assay Results” (See Table Section).

[3] = system: Beet Armyworm (BAW) (Spodoptera exigua); test: Bioassay on Beet Armyworm (BAW), 128-well diet tray assay; settings: 168 h, Table ABC, 50 μg/cm^2 on artificial diet, second instar larvae, five to seven days, 25° C., read-out: BAW % Control (or Mortality) rating
Method: as §1
Bioassays on BAW were conducted using a 128-well diet tray assay. one to five second instar BAW larvae were placed in each well (3 mL) of the diet tray that had been previously filled with 1 mL of artificial diet to which 50 μg/cm^2 of the test compound (dissolved in 50 μL of 90:10 acetone-water mixture) had been applied (to each of eight wells) and then allowed to dry. Trays were covered with a clear self-adhesive cover, and held at 25° C., 14:10 light-dark for five to seven days. Percent mortality was recorded for the larvae in each well; activity in the eight wells was then averaged. The results are indicated in the tables entitled “Table ABC: Assay Results” and “Table ABCD: Assay Results” (See Table Section).

SMILES	YFM % Control (or Mortality) rating [1]	mortality at 50 µg/cm2 [2]	mortality at 50 µg/cm2 [3]
Cc1ccc(C(C)C)c(-n2c(C)cs/c2=N\C(=O)NC2Cc3ccc(-c4ncn(-c5ccc(OC(F)(F)F)cc5)n4)cc3C2)c1 (stereo not drawn) [P12, (Z)-1-(3-(2-Isopropyl-5-methylphenyl)-4-methylthiazol-2(3H)-ylidene)-3-(5-(1-(4-(trifluoromethoxy)phenyl)-1H-1,2,4-triazol-3-yl)-2,3-dihydro-1H-inden-2-yl)urea]	A (80-100)	50 to 100%	50 to 100%
Cc1ccc(C(C)C)c(N2C(=O)C(C)S/C2=N\C(=O)NC2Cc3ccc(-c4ncn(-c5ccc(OC(F)(F)F)cc5)n4)cc3C2)c1 (stereo not drawn) [P13, (Z)-1-(3-(2-Isopropyl-5-methylphenyl)-5-methyl-4-oxothiazolidin-2-ylidene)-3-(5-(1-(4-(trifluoromethoxy)phenyl)-1H-1,2,4-triazol-3-yl)-2,3-dihydro-1H-inden-2-yl)urea]	B (More than 0-Less than 80)	50 to 100%	50 to 100%
Cc1ccc(C(C)C)c(N2CC(C)CS/C2=N\C(=O)NC2Cc3ccc(-c4ncn(-c5ccc(OC(F)(F)F)cc5)n4)cc3C2)c1 (stereo not drawn) [P18, (Z)-1-(3-(2-isopropyl-5-methylphenyl)-5-methyl-1,3-thiazinan-2-ylidene)-3-(5-(1-(4-(trifluoromethoxy)phenyl)-1H-1,2,4-triazol-3-yl)-2,3-dihydro-1H-inden-2-yl)urea]	A (80-100)	50 to 100%	50 to 100%
CC(C)c1ccccc1N1CCCS/C1=N\C(=O)NC1Cc2ccc(-c3ncn(-c4ccc(OC(F)(F)F)cc4)n3)cc2C1 (stereo not drawn) [P19, (Z)-1-(3-(2-Isopropylphenyl)-1,3-thiazinan-2-ylidene)-3-(5-(1-(4-(trifluoromethoxy)phenyl)-1H-1,2,4-triazol-3-yl)-2,3-dihydro-1H-inden-2-yl)urea]	A (80-100)	50 to 100%	50 to 100%
Cc1ccc(C(C)C)c(N2CCCS/C2=N\C(=O)NC2Cc3ccc(-c4ncn(-c5ccc(OC(F)(F)F)cc5)n4)cc3C2)c1 (stereo not drawn) [P20, (Z)-1-(3-(2-Isopropyl-5-methylphenyl)-1,3-thiazinan-2-ylidene)-3-(5-(1-(4-(trifluoromethoxy)phenyl)-1H-1,2,4-triazol-3-yl)-2,3-dihydro-1H-inden-2-yl)urea]	A (80-100)	50 to 100%	50 to 100%
Cc1ccc(C(C)C)c(NC(=S)NC(=O)NC2CCc3cc(-c4ncn(-c5ccc(OC(F)(F)F)cc5)n4)ccc3C2)c1 (stereo not drawn) [P21, 1-[(2-Isopropyl-5-methyl-phenyl)carbamothioyl]-3-[6-[1-[4-(trifluoromethoxy)phenyl]-1,2,4-triazol-3-yl]tetralin-2-yl]urea]	A (80-100)	50 to 100%	50 to 100%
CC(C)c1ccccc1NC(=S)NC(=O)NC1CCc2cc(-c3ncn(-c4ccc(OC(F)(F)F)cc4)n3)ccc2C1 (stereo not drawn) [P22, 1-[(2-Isopropylphenyl)carbamothioyl]-3-[6-[1-[4-(trifluoromethoxy)phenyl]-1,2,4-triazol-3-yl]tetralin-2-yl]urea]	A (80-100)	50 to 100%	50 to 100%
CC(C)c1ccccc1N1C(=O)CS/C1=N\C(=O)NC1CCc2cc(-c3ncn(-c4ccc(OC(F)(F)F)cc4)n3)ccc2C1 (stereo not drawn) [P24, (Z)-1-(3-(2-Isopropylphenyl)-4-oxothiazolidin-2-ylidene)-3-(6-(1-(4-(trifluoromethoxy)phenyl)-1H-1,2,4-triazol-3-yl)-1,2,3,4-tetrahydronaphthalen-2-yl)urea]	A (80-100)	50 to 100%	50 to 100%
Cc1ccc(C)c(NC(=S)NC(=O)NC2CCc3cc(-c4ncn(-c5ccc(OC(F)(F)F)cc5)n4)ccc3C2)c1 (stereo not drawn) [P25, 1-[(2,5-Dimethylphenyl)carbamothioyl]-3-[6-[1-[4-(trifluoromethoxy)phenyl]-1,2,4-triazol-3-yl]tetralin-2-yl]urea]	A (80-100)	50 to 100%	50 to 100%
CC(C)c1ccc(Cl)cc1NC(=S)NC(=O)NC1CCc2cc(-c3ncn(-c4ccc(OC(F)(F)F)cc4)n3)ccc2C1 (stereo not drawn) [P26, 1-[(5-Chloro-2-isopropyl-phenyl)carbamothioyl]-3-[6-[1-[4-(trifluoromethoxy)phenyl]-1,2,4-triazol-3-yl]tetralin-2-yl]urea]	A (80-100)	50 to 100%	50 to 100%
CCCc1ccc(C)cc1NC(=S)NC(=O)NC1CCc2cc(-c3ncn(-c4ccc(OC(F)(F)F)cc4)n3)ccc2C1 (stereo not drawn) [P27, 1-[(5-Methyl-2-propyl-phenyl)carbamothioyl]-3-[6-[1-[4-(trifluoromethoxy)phenyl]-1,2,4-triazol-3-yl]tetralin-2-yl]urea]	A (80-100)	50 to 100%	50 to 100%
COc1ccc(NC(=S)NC(=O)NC2CCc3cc(-c4ncn(-c5ccc(OC(F)(F)F)cc5)n4)ccc3C2)c(C)c1 (stereo not drawn) [P28, 1-[(4-Methoxy-2-methyl-phenyl)carbamothioyl]-3-[6-[1-[4-(trifluoromethoxy)phenyl]-1,2,4-triazol-3-yl]tetralin-2-yl]urea]	A (80-100)	50 to 100%	50 to 100%
CCc1cccc(C)c1NC(=S)NC(=O)NC1CCc2cc(-c3ncn(-c4ccc(OC(F)(F)F)cc4)n3)ccc2C1 (stereo not drawn) [P29, 1-[(2-Ethyl-6-methyl-phenyl)carbamothioyl]-3-[6-[1-[4-(trifluoromethoxy)phenyl]-1,2,4-triazol-3-yl]tetralin-2-yl]urea]	A (80-100)	50 to 100%	50 to 100%
Cc1ccc(Cl)c(NC(=S)NC(=O)NC2CCc3cc(-c4ncn(-c5ccc(OC(F)(F)F)cc5)n4)ccc3C2)c1 (stereo not drawn) [P30, 1-[(2-Chloro-5-methyl-phenyl)carbamothioyl]-3-[6-[1-[4-(trifluoromethoxy)phenyl]-1,2,4-triazol-3-yl]tetralin-2-yl]urea]	A (80-100)	50 to 100%	50 to 100%
COc1ccc(C)cc1NC(=S)NC(=O)NC1CCc2cc(-c3ncn(-c4ccc(OC(F)(F)F)cc4)n3)ccc2C1 (stereo not drawn) [P31, 1-[(2-Methoxy-5-methyl-phenyl)carbamothioyl]-3-[6-[1-[4-(trifluoromethoxy)phenyl]-1,2,4-triazol-3-yl]tetralin-2-yl]urea]	A (80-100)	50 to 100%	50 to 100%
Cc1ccc(C)c(N2C(=O)CS/C2=N\C(=O)NC2CCc3cc(-c4ncn(-c5ccc(OC(F)(F)F)cc5)n4)ccc3C2)c1 (stereo not drawn) [P32, (Z)-1-(3-(2,5-Dimethylphenyl)-4-oxothiazolidin-2-ylidene)-3-(6-(1-(4-(trifluoromethoxy)phenyl)-1H-1,2,4-triazol-3-yl)-1,2,3,4-tetrahydronaphthalen-2-yl)urea]	B (More than 0-Less than 80)	50 to 100%	50 to 100%
CC(C)c1ccc(Cl)cc1N1C(=O)CS/C1=N\C(=O)NC1CCc2cc(-c3ncn(-c4ccc(OC(F)(F)F)cc4)n3)ccc2C1 (stereo not drawn) [P33, (Z)-1-(3-(5-Chloro-2-isopropylphenyl)-4-oxothiazolidin-2-ylidene)-3-(6-(1-(4-(trifluoromethoxy)phenyl)-1H-1,2,4-triazol-3-yl)-1,2,3,4-tetrahydronaphthalen-2-yl)urea]	A (80-100)	50 to 100%	50 to 100%

From US9469617B2, “Molecules having certain pesticidal utilities, and intermediates, compositions, and processes related thereto” (priority 2014, dated 2016)
